Measured values as given in patent US6207677A, “Piperidine derivatives having anxiolytic effect” (H. Lundbeck A/S, priority 1991, dated 2001).

Target: sigma receptors
Assay: Inhibition of 3H-DTG binding to sigma receptors in rat brain in vitro
Settings: 2 nM 3H-DTG, rat brain without cerebellum, 25° C., 20 min
Method: INHIBITION OF 3H-DTG BINDING TO SIGMA RECEPTORS IN RAT BRAIN IN VITRO
By this method the inhibition by drugs of the binding of 2 nM ^3 H-DTG (1,3,di-o-tolyl guanidine) to sigma receptors in homogenates or membranes from rat brain without cerebellum is determined in vitro as modified from Weber et al. Proc. Natl. Acad. Sci. 1986, 83,8784.
Homogenate: Rats (150-250 g) are decapitated and the brains (without cerebellum) quickly removed and placed on ice, weighed and homogenized in 100 vol ice-cold (0° C.) 50 mM Tris-buffer (pH 7.7) in an ethanol rinsed glass/teflon homogenizer at 0° C. and kept on ice until use.
P2-membranes: Brains are homogenized in 10 vol 0.32 M sucrose in an ethanol rinsed glass/teflon homogenizer with 10 strokes up and down. The homogenate is centrifuged for 10 min at 900×gm at 4° C. The supernatant is decanted and centrifuged for 20 min at 50,000 gm at 4° C. The resulting pellet is resuspended in 10 vol ice-cold […] Tris-buffer (pH 7.7) and incubated for 30 min. at 37° C. The membrane suspension is then centrifuged for further 20 min. at 50,000 gm at 4° C. The pellet is resuspended in 50 vol. of ice-cold Tris-buffer and used immediately.
0.5 ml 50 mM Tris-buffer (pH 7.7), 0.25 ml displacer (6×100 μM DTG, 6× [test compound], or Tris-buffer), and 0.25 ml 6×2 nM. ^3 H-DTG are mixed into 5 ml s plastic test tubes and kept at 4° C. until use. The binding reaction is initiated by mixing 0.5 ml tissue suspension into this solution and incubate at 25° C. for 20 min. Glass fiber filters (Whatman GF/B) are placed on the filter machine which is then closed tightly. Just before filtration vacuum is applied, and the filters washed with 0.1% PEI solution from a spray bottle followed by one wash with Tris-buffer.
The binding reaction is stopped by filtration of the assay mixture at reduced pressure (750 mbar) followed by further 3 washes with 5 ml ice-cold Tris-buffer. The filters are then placed in counting vials and 4 ml scintillation solution added. The vials are counted in a Beckmann scintillation counter.
50 mM Tris-buffer pH 7.7: 7.38 g Trizma--7.7 plus distilled H2 O ad 1 liter. 100 ml 10% polyethylenimine (PEI): 100 ml dest. H2 O is added to approx. 20 g 50% PEI which is solubilized by stirring and heating. Diluted (1+99) before use. 6×2 nM ^3 H-DTG: The exact volume depends on the actual concentration of the batch, but is made as close as possible to 12 nM. The containers for the radioactive solution is rinsed in 96% ethanol before use.
^3 H-DTG was obtained from NEN Research Products, Du Pont Denmark. Specific activity 62.3 Ci/mmol.
The known sigma receptor ligands BMY 14802 and rimcazole were included in the test for comparison purposes.

SMILES	IC50 [nM]
c1ccc(CCCN2CCC3(CC2)OCc2ccccc23)cc1 [Compound 4d, 1'-(3-Phenyl-1-propyl)-spiro[isobenzofuran-1(3H),4'-piperidine]]	1.1
c1ccc(CCCCCN2CCC3(CC2)OCc2ccccc23)cc1 [Compound 4e, 1'-(5-Phenyl-1-pentyl)-spiro[isobenzofuran-1 (3h),4'-piperidine]]	0.2
CCCCCCCCCCCCCCCCCCN1CCC2(CC1)OCc1ccccc12 [Compound 4g, 1'-Octadecanyl-spiro[isobenzofuran-1(3H),4'-piperidine]]	46
Fc1ccc(-n2cc(CCCCN3CCC4(CC3)Cc3ccccc3CO4)c3ccccc32)cc1 [Compound 5b, 1,4-Dihydro-1'-[4-[1-(4-Fluorophenyl)-3-indolyl]-1-butyl]spiro[3H-2-benzopyran-3,4'-piperidine]]	1.1
c1ccc2c(c1)COC21CCN(CCCCc2cn(-c3ccsc3)c3ccccc23)CC1 [Compound 5c, 1'-(4-(1-(3-Thienyl)-3-indolyl]-1-butyl]spiro[isobenzofuran-1(3H),4'-piperidine]]	0.25
c1csc(-n2cc(CCCCN3CCC4(CC3)OCc3ccccc34)c3ccccc32)c1 [Compound 5d, 1'-[4-[1-(2-Thienyl)-3-indolyl]-1-butyl]spiro[isobenzofuran-1(3H),4'-piperidine]]	0.24
c1ccc2c(c1)COC21CCN(CCCCc2cn(-c3ccoc3)c3ccccc23)CC1 [Compound 5e, 1'-[4-[1-(3-Furanyl)-3-indolyl]-1-butyl]spiro[isobenzofuran-1(3H),4'-piperidine]]	4.7
Fc1ccc(-n2cc(CCCCN3CCC(c4ccccc4)CC3)c3ccccc32)cc1 [Compound 5f, 1-(4-Fluorophenyl)-3-[4-(4-phenyl-1-piperidyl)-1-butyl]indole]	0.04
c1ccc2c(c1)COC21CCN(CCCCc2cn(-c3ccncc3)c3ccccc23)CC1 [Compound 5g, 1'-[4-[1-(4-Pyridyl)-3-indolyl]-1-butyl]spiro[isobenzofuran-1(3H),4'-piperidine]]	4
CS(=O)(=O)n1cc(CCCCN2CCC3(CC2)OCc2ccccc23)c2ccccc21 [Compound 6a, 1'-(4-(1-Methanesulfonyl-3-indolyl)-1-butyl)spiro[isobenzofuran-1(3 H),4'-piperidine]]	0.05
Cc1ccc(S(=O)(=O)n2cc(CCCCN3CCC4(CC3)OCc3ccccc34)c3ccccc32)cc1 [Compound 6b, 1'-(4-(1-p-Toluenesulfonyl-3-indolyl)-1-butyl)spiro[isobenzofuran-1(3H),4'-piperidine]]	0.17
O=S(=O)(c1cccs1)n1cc(CCCCN2CCC3(CC2)OCc2ccc(F)cc23)c2ccccc21 [Compound 6c, 6-Fluoro-1'-(4-(1-(2-thienyl)sulfonyl-3-indolyl)-1-butyl)spiro[isobenzofuran-1(3H),4'-piperidine)]	< 0.1
CC(=O)n1cc(CCCCN2CCC3(CC2)OCc2ccccc23)c2ccccc21 [Compound 7, 1'-(4-(1-Acetyl-3-indolyl)-1-butyl)spiro[isobenzofuran-1 (3H),4'-piperidine]]	0.21
Fc1ccc(-n2cc(OCCCN3CCC4(CC3)OCc3ccccc34)c3ccccc32)cc1 [Compound 8a, 1'-[3-[1-(4-Fluorophenyl)-3-indolyloxy]-1-propyl]spiro[isobenzofuran-1(3H),4'-piperidine]]	0.21
Fc1ccc(-n2cc(OCCCN3CCC4(CC3)OCc3ccccc34)c3ccc(Cl)cc32)cc1 [Compound 8b, 1'-[3-[6-Chloro-1-(4-fluorophenyl)-3-indolytoxy)-1-propyl]spiro[isobenzofuran-1(3M),4'-piperidine]]	1.7
Fc1ccc(-n2cc(OCCCN3CCC4(CC3)OCc3ccccc34)c3cc(Cl)ccc32)cc1 [Compound 8c]	0.66
Cc1ccc(C2CCN(CCCOc3cn(-c4ccc(F)cc4)c4ccc(Cl)cc34)CC2)cc1 [Compound 8d, 5-Chloro-1-(4-fluorophenyl)-3-[3-(4-(4-methylphenyl)-1-piperidinyl)-1-propyloxy]indol]	11

SMILES	IC50 [nM]
Fc1ccc(-n2cc(CCCCN3CCC4(CC3)COCc3ccccc34)c3ccccc32)cc1 [Compound 9a, 1'-[4-[1-(4-Fluorophenyl)-3-indolyl]-1-butyl]spiro[1H-2-benzopyran-4(3H), 4'-piperidine]]	0.34
Fc1ccc(-n2cc(CCCCN3CCC4(CC3)OCc3ccccc34)c3cc(F)ccc32)cc1 [Compound 9b, 1'-[4-[5-Fluoro-1-(4-fluorophenyl)-3-indolyl]-1-butyl]spiro[isobenzofuran-1(3H), 4'-piperidine]]	0.06
Fc1ccc(-n2cc(CCCCN3CCC4(CC3)SCc3ccccc34)c3ccccc32)cc1 [Compound 9c, 1'-[4-[1-(4-Fluorophenyl)-3-indolyl]-1-butyl]spiro[benzo[c]thiophene-1(3H),4'-piperidine]]	0.14
Fc1ccc(-n2cc(CCCCN3C4CCC3CC3(C4)OCc4ccccc43)c3ccccc32)cc1 (stereo not shown) [Compound 9d]	26
Fc1ccc(-n2cc(CCCCN3CCC4(CC3)OCc3cccc(F)c34)c3ccccc32)cc1 [Compound 9g, 7-Fluoro-1'-[4-[1-(4-fluorophenyl)-3-indolyl]-1-butyl]spiro[isobenzofuran-1(3H), 4'-piperidine]]	4.2
Cc1ccc2c(c1)COC21CCN(CCCCc2cn(-c3ccc(F)cc3)c3ccccc23)CC1 [Compound 9h, 1'-[4-[1-(4-Fluorophenyl)-3-indolyl]-1-butyl]-5-methylspiro[isobenzofuran-1(3H),4'-piperidine]]	2.3
Cc1ccc(-n2cc(CCCCN3CCC4(CC3)COCc3ccccc34)c3ccccc32)cc1 [Compound 9i, 1'-(4-(1-(4-Methylphenyl)-3-indolyl]-1-butyl]spiro[1H-2-benzopyran-4(3H), 4'-piperidine]]	0.62
Fc1ccc2c(c1)c(CCCCN1CCC3(CC1)OCc1ccccc13)cn2-c1ccsc1 [Compound 9j, 1'-[4-[5-Fluoro-1-(3-thienyl)-3-indolyl]-1-butyl]-spiro[isobenzofuran-1(3H),4'-piperidine]]	0.11
c1cncc(-n2cc(CCCCN3CCC4(CC3)COCc3ccccc34)c3ccccc32)c1 [Compound 9k, 1'-[4-[1-(3-Pyridinyl)-3-indolyl]-1-butyl]spiro[1H-2-benzopyran-4(3H), 4'-piperidine]]	0.92
Fc1ccc(C2CCN(CCCCc3cn(-c4ccc(F)cc4)c4ccccc34)CC2)cc1 [Compound 9l, 1-(4-Fluorophenyl)-3-[4-(4-(4-fluorophenyl)-1-piperidyl)-1-butyl]indole]	0.14
Cc1ccc(C2CCN(CCCCc3cn(-c4ccc(F)cc4)c4ccccc34)CC2)cc1 [Compound 9m, 1-(4-Fluorophenyl)-3-[4-(4-(4-methylphenyl)-1-piperidyl)-1-butyl]indole]	1.6
CC(C)c1ccc(C2CCN(CCCCc3cn(-c4ccc(F)cc4)c4ccccc34)CC2)cc1 [Compound 9n, 1-(4-Fluorophenyl)-3-[4-(4-(4-isopropylphenyl)-1-piperidyl)-1-butyl]indole]	6.3
CN(C)c1ccc(C2CCN(CCCCc3cn(-c4ccc(F)cc4)c4ccccc34)CC2)cc1 [Compound 9o, 1-(4-Fluorophenyl)-3-[4-(4-(4-dimethylaminophenyl)-1-piperidyl)-1-butyl]indole]	6.7
Fc1ccc(C2CCN(CCCCc3cn(-c4ccccc4)c4ccccc34)CC2)cc1 [Compound 9p, 1-Phenyl-3-[4-(4-(4-fluorophenyl)-1-piperidyl)-1-butyl]indole]	0.28
c1ccc2c(c1)COC21CCN(CCCCc2cn(-c3nccs3)c3ccccc23)CC1 [Compound 9q, 1'-[4-(1-(2-Thiazolyl)-3-indolyl)-1-butyl]spiro[isobenzofuran-1(3H) ,4'-piperidine]]	0.12
Fc1ccc(-n2cc(CCCCN3CCC4(CC3)OCc3c(F)cccc34)c3ccccc32)cc1 [Compound 9s, 4-Fluoro-1'-[4-[1-(4-fluorophenyl)-3-indolyl]-1-butyl]spiro[isobenzofuran-1(3H),4'-piperidine]]	56
Fc1ccc(-n2cc(CCCCN3CCC(c4cccc(C(F)(F)F)c4)CC3)c3ccccc32)cc1 [Compound 9t, 1-(4-Fluorophenyl)-3-[4-(4-(3-trifluoromethylphenyl)-1-piperidyl)-1-butyl]indole]	3.2
